The test system of one assay is A549 cells. Description: A549 proliferation (viability) assay, Cell Titer Fluor, 72 hours. Particulars: Homo sapiens. In kind it is cell-based. Put shortly: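 Fluorescence read-out (Cell Titer Fluor, 30 min at 37 °C after reagent) after 72 h compound exposure of A549 cells; EC50 by four-parameter logistic curve fit. Cells: 1000/well, RPMI 1640 + 10% dialyzed FBS, 0.5% DMSO final.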

Assay [1] has as its target T1, GLS1 (purified recombinant human GAC) (Homo sapiens, UniProt O94925).
T1 sequence (O94925 55-598 isoform O94925-3 limits assumed): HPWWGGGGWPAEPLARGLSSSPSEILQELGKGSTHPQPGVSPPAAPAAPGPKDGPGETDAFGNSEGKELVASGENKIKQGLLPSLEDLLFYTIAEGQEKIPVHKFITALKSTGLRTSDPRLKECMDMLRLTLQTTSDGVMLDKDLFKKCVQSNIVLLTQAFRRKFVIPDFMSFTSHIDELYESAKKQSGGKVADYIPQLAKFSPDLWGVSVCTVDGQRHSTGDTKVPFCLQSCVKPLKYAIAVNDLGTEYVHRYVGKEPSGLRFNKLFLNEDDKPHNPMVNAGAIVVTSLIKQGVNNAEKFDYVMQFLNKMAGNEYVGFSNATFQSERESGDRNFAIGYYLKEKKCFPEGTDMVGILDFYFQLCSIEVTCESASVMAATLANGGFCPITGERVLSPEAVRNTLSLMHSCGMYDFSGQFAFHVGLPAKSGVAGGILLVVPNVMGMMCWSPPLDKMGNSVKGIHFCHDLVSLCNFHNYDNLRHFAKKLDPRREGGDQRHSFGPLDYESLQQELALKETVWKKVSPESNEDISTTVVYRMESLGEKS
Description: GLS1 enzymatic activity assay (dual-coupled, Amplex UltraRed/resorufin). In kind it is biochemical. In outline:
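In this coupled fluorometric format, phosphate-activated GAC (2 nM, 50 mM phosphate) is pre-exposed to compound for 10 min before 1 mM glutamine addition. Product is tracked as resorufin (530/590 nm) over time or at 20 min, and potency is derived by logistic fitting.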

Drawing on patent US20160002204A1 (Board of Regents, The University of Texas System, priority 2014, published 2016), this text covers EC50 and IC50 for 21 compounds.

Values joined by “and” are separate entries in the source; they are usually repeats but may differ in a detail not shown here. Identical values can stand only once.

For `O=C(Cc1ccc(F)cc1F)Nc1ccn(CCC(F)Cn2cc(C(=O)NCc3cccc(OC(F)(F)F)c3)nn2)c(=O)c1F` (stereo not drawn) [Example 334, 1-(4-{4-[2-(2,4-difluorophenyl)acetamido]-3-fluoro-2-oxo-1,2-dihydropyridin-1-yl}-2-fluorobutyl)-N-{[3-(trifluoromethoxy)phenyl]methyl}-1H-1,2,3-triazole-4-carboxamide], the EC50 in the assay on A549 cells was less than 100 nM. The IC50 in assay [1] is less than 100 nM.
For `O=C(Cc1cccc(OC(F)(F)F)c1)Nc1ccn(CCCCc2nnc(NC(=O)[C@@H](O)c3ccccc3)s2)c(=O)n1` [Example 80, (2S)-2-hydroxy-N-{5-[4-(2-oxo-4-{2-[3-(trifluoro-methoxy)phenyl]acetamido}-1,2-dihydropyrimidin-1-yl)butyl]-1,3,4-thiadiazol-2-yl}-2-phenylacetamide], the EC50 in the assay with A549 cells lay in the range of 100 to 500 nM. Moreover, in assay [1], the IC50 was less than 100 nM.
In the assay on A549 cells, `O=C(Cc1cccnc1)Nc1ccn(CCCCc2nnc(NC(=O)Cc3ccccc3)s2)c(=O)n1` [Example 82, N-[5-(4-{2-oxo-4-[2-(pyridin-3-yl)acetamido]-1,2-dihydropyrimidin-1-yl}butyl)-1,3,4-thiadiazol-2-yl]-2-phenylacetamide] registered an EC50 greater than 5000 nM. The IC50 in assay [1] was less than 100 nM.
`O=C(Nc1ccn(CCCCc2nnc(C(=O)NCc3ccccn3)s2)c(=O)n1)OCc1ccccc1` [Example 120, benzyl N-[2-oxo-1-(4-{5-[(pyridin-2-ylmethyl)carbamoyl]-1,3,4-thiadiazol-2-yl}butyl)-1,2-dihydropyrimidin-4-yl]carbamate] registered an EC50 with A549 cells of 500 to 5000 nM. In assay [1], the IC50 is 500 to 5000 nM and 100 to 500 nM.
`Cn1ccnc1CC(=O)Nc1ccn(CCC(F)Cn2cc(C(=O)NCc3cccc(OC(F)(F)F)c3)nn2)c(=O)c1` (stereo not drawn) [Example 189, 1-(2-fluoro-4-{4-[2-(1-methyl-1H-imidazol-2-yl)acetamido]-2-oxo-1,2-dihydropyridin-1-yl}butyl)-N-{[3-(trifluoromethoxy)phenyl]methyl}-1H-1,2,3-triazole-4-carboxamide] displayed an EC50 with A549 cells greater than 5000 nM. Moreover, the half-maximal inhibitory concentration (IC50) in assay [1] was 100 to 500 nM.
`O=C(Cc1ccccc1)Nc1cnn(CCCCn2cc(C(=O)NCc3cccc(OC(F)(F)F)c3)nn2)c(=O)c1` [Example 172, 1-{4-[6-oxo-4-(2-phenylacetamido)-1,6-dihydropyridazin-1-yl]butyl}-N-{[3-(trifluoromethoxy)phenyl]methyl}-1H-1,2,3-triazole-4-carboxamide] displayed a half-maximal effective concentration (EC50) in the assay on A549 cells of 500 to 5000 nM. In assay [1], the IC50 lay within 100 to 500 nM.
Take `CC(C)(C)OC(=O)Nc1ccn(CCC(F)Cn2cc(C(=O)NCc3cccc(OC(F)(F)F)c3)nn2)c(=O)c1` (stereo not drawn) [Example 234, tert-butyl N-(1-{3-fluoro-4-[4-({[3-(trifluoromethoxy)phenyl]methyl]carbamoyl)-1H-1,2,3-triazol-1-yl]butyl}-2-oxo-1,2-dihydropyridin-4-yl)carbamate]: the EC50 in the assay on A549 cells lay within 100 to 500 nM. For the same compound, in assay [1], the IC50 was less than 100 nM.
Compound `O=C(Cc1ccccc1)Nc1ccn(CCC(F)Cn2cc(C(=O)NCc3cc(Cl)ccc3F)nn2)c(=O)c1` (stereo not drawn) [Example 216, N-[(5-chloro-2-fluorophenyl)methyl]-1-{2-fluoro-4-[2-oxo-4-(2-phenylacetamido)-1,2-dihydropyridin-1-yl]butyl}-1H-1,2,3-triazole-4-carboxamide] yielded an EC50 in the assay with A549 cells of 100 to 500 nM. The IC50 in assay [1] was less than 100 nM.
In the same order, the values of `O=C(Nc1ccn(CCCCn2cc(C(=O)NCc3cccc(OC(F)(F)F)c3)nn2)c(=O)c1)OC1CCC(F)(F)CC1` [Example 174, 4,4-difluorocyclohexyl N-(2-oxo-1-{4-[4-({[3-(trifluoro-methoxy)phenyl]methyl}carbamoyl)-1H-1,2,3-triazol-1-yl]butyl}-1,2-dihydropyridin-4-yl)carbamate] are 100 to 500 nM and less than 100 nM.
`O=C(CN1CCCCC1)Nc1ccn(CCC(F)Cn2cc(C(=O)NCc3cccc(OC(F)(F)F)c3)nn2)c(=O)c1` (stereo not drawn) [Example 269, 1-(2-fluoro-4-{2-oxo-4-[2-(piperidin-1-yl)acetamido]-1,2-dihydropyridin-1-yl}butyl)-N-{[3-(trifluoromethoxy)phenyl]methyl}-1H-1,2,3-triazole-4-carboxamide] showed an EC50 in the assay with A549 cells of less than 100 nM. In addition, in assay [1], the half-maximal inhibitory concentration (IC50) is less than 100 nM.
On to `O=C(Nc1ccn(CCC(F)Cn2cc(C(=O)NCc3cc(C(F)(F)F)ccn3)nn2)c(=O)n1)NC1CCC1` (stereo not drawn) [Example 496, 1-(4-{4-[(cyclobutylcarbamoyl)amino]-2-oxo-1,2-dihydropyrimidin-1-yl}-2-fluorobutyl)-N-{[4-(trifluoromethyl)pyridin-2-yl]methyl}-1H-1,2,3-triazole-4-carboxamide], for which, in the assay with A549 cells, the concentration for a half-maximal effect (EC50) was greater than 5000 nM. The IC50 in assay [1] was 500 to 5000 nM.
In the assay with A549 cells, `CC(C)(C)OC(=O)Nc1ccn(CCC(F)Cn2cc(C(=O)NCc3cncc(C(F)(F)F)c3)nn2)c(=O)c1F` (stereo not drawn) [Example 330, tert-butyl N-(3-fluoro-1-{3-fluoro-4-[4-({[5-(trifluoromethyl)pyridin-3-yl]methyl}carbamoyl)-1H-1,2,3-triazol-1-yl]butyl}-2-oxo-1,2-dihydropyridin-4-yl)carbamate] gave an EC50 of 100 to 500 nM. In addition, the IC50 in assay [1] is less than 100 nM.
Regarding `N#Cc1ccc(CNC(=O)c2cn(CC(F)CCn3ccc(NC(=O)Cc4ccccc4)c(F)c3=O)nn2)cn1` (stereo not drawn) [Example 380, N-[(6-cyanopyridin-3-yl)methyl]-1-{2-fluoro-4-[3-fluoro-2-oxo-4-(2-phenylacetamido)-1,2-dihydropyridin-1-yl]butyl}-1H-1,2,3-triazole-4-carboxamide], in the assay with A549 cells, the EC50 fell in the range of 500 to 5000 nM. Besides, in assay [1], the IC50 was in the range of 100 to 500 nM.
`O=C(CN1CCCCC1)Nc1ccn(CCC(F)Cn2cc(C(=O)NCc3cccc(OC(F)(F)F)c3)nn2)c(=O)c1F` (stereo not drawn) [Example 288, 1-(2-fluoro-4-{3-fluoro-2-oxo-4-[2-(piperidin-1-yl)acetamido]-1,2-dihydropyridin-1-yl}butyl)-N-{[3-(trifluoromethoxy)phenyl]methyl}-1H-1,2,3-triazole-4-carboxamide]: the EC50 in the assay with A549 cells is less than 100 nM. For the same compound, in assay [1], the IC50 is less than 100 nM.
`O=C(Cc1ccccn1)Nc1ccn(CCC(F)Cn2cc(C(=O)NCc3cccc(OC(F)(F)F)c3)nn2)c(=O)c1` (stereo not drawn) [Example 250, 1-(2-fluoro-4-{2-oxo-4-[2-(pyridin-2-yl)acetamido]-1,2-dihydropyridin-1-yl}butyl)-N-{[3-(trifluoromethoxy)phenyl]methyl}-1H-1,2,3-triazole-4-carboxamide] had an EC50 in the assay on A549 cells of 100 to 500 nM. In addition, the IC50 in assay [1] is less than 100 nM.
In turn, `CO[C@@H](C(=O)Nc1ccn(CCC(F)Cn2cc(C(=O)NCc3ccc(C)nc3)nn2)c(=O)c1F)c1ccccc1` (stereo partly drawn) [Example 313, 1-(2-fluoro-4-{3-fluoro-4-[(2R)-2-methoxy-2-phenylacetamido]-2-oxo-1,2-dihydropyridin-1-yl}butyl)-N-[(6-methylpyridin-3-yl)methyl]-1H-1,2,3-triazole-4-carboxamide] had an EC50 in the assay with A549 cells of 100 to 500 nM. Also, the IC50 in assay [1] was less than 100 nM.
In the assay with A549 cells, `CNC(=O)c1cn(CC(F)CCn2ccc(NC(=O)CN3CCN(C(=O)OC(C)(C)C)CC3)cc2=O)nn1` (stereo not drawn) [Example 403, tert-butyl 4-{[(1-{3-fluoro-4-[4-(methylcarbamoyl)-1H-1,2,3-triazol-1-yl]butyl}-2-oxo-1,2-dihydropyridin-4-yl)carbamoyl]methyl}piperazine-1-carboxylate] showed an EC50 of 500 to 5000 nM. For the same compound, the IC50 in assay [1] was 100 to 500 nM.
In the case of `CC(C)(C)OC(=O)c1cn(CC(F)CCn2ccc(CO)cc2=O)nn1` (stereo not drawn) [Example 408, tert-butyl 1-{2-fluoro-4-[4-(hydroxymethyl)-2-oxo-1,2-dihydropyridin-1-yl]butyl}-1H-1,2,3-triazole-4-carboxylate], in the assay on A549 cells, the EC50 is greater than 5000 nM. In addition, in assay [1], the IC50 was greater than 5000 nM.
Turning to `CC(C)CC(=O)Nc1ccn(CCCCn2cc(C(=O)NCc3ccccn3)nn2)c(=O)c1` [Example 38, 1-{4-[4-(3-methylbutanamido)-2-oxo-1,2-dihydropyridin-1-yl]butyl}-N-(pyridin-2-ylmethyl)-1H-1,2,3-triazole-4-carboxamide], in the assay with A549 cells, the EC50 is greater than 5000 nM. In assay [1], the IC50 was 500 to 5000 nM.
`O=C(Cc1ccccc1)Nc1ccn(CCC(F)Cn2cc(C(=O)NCc3ncccc3F)nn2)c(=O)c1F` (stereo not drawn) [Example 373, 1-{2-fluoro-4-[3-fluoro-2-oxo-4-(2-phenylacetamido)-1,2-dihydropyridin-1-yl]butyl}-N-[(3-fluoropyridin-2-yl)methyl]-1H-1,2,3-triazole-4-carboxamide]: the EC50 in the assay on A549 cells was 500 to 5000 nM. Besides, the IC50 in assay [1] lay in the range of 100 to 500 nM.
In the assay on A549 cells, `CC(=O)Nc1ccn(CCCCc2ccc(NC(=O)Cc3cccc(OC(F)(F)F)c3)nn2)c(=O)n1` [Example 76, N-{6-[4-(4-acetamido-2-oxo-1,2-dihydropyrimidin-1-yl)butyl]pyridazin-3-yl}-2-[3-(trifluoromethoxy)phenyl]acetamide] had an EC50 of 100 to 500 nM. For the same compound, in assay [1], the IC50 was less than 100 nM.
